Experimental findings from patent US20240342292A1, “Compounds for the Degradation of EGFR Kinase” (BeiGene Switzerland GmbH, priority 2021, published 2024) are described below.

The test system of one test is Del19/T790M/C797S EGFR. Kind of test: EGFR degradation HTRF assay in H1975-clone #28 (DTC) cells. The class given is cell-based. The note with it: H1975 # 28 DTC (Del19/T790M/C797S), 16h treatment; for DC50: HTRF; for Dmax (%): maximum percentage of degradation. The procedure, abridged:
(§1)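 Cells carrying only lentiviral mutant EGFR, since endogenous alleles were removed by CRISPR, received compounds on day 2 for 16 h. Final concentrations ran from 10 uM down in 5-fold steps over 8 doses. After lysis, EGFR levels were quantified by HTRF and DC50 derived by curve fitting.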

A further test concerns the target T1, L858R/T790M/C797S EGFR (Homo sapiens, UniProt P00533, C797S/L858R/T790M).
T1 construct: expressed in transfected cells; host or cells: H1975 clone #25 (lentiviral over-expression, endogenous EGFR knocked out by sgRNA)
Kind of test: EGFR degradation HTRF assay in H1975-clone #25 (LTC) cells. The class given is cell-based. The note with it: 16h treatment; for DC50: HTRF; for Dmax: NCI-H1975, H1975 # 25-LTC (L858R/T790M/C797S). The procedure, abridged: as §1
Background: TR-FRET usually uses a lanthanide donor and a delayed reading to cut background.

Where [1] appears, read: H1975 # 25-LTC (L858R/T790M/C797S).
Setting [2] is: maximum percentage of degradation.

Consider `Cc1cc2cc(n1)-c1cnn(C)c1OCCC[C@@H](C)CN1/C(=N/C2=O)Nc2ccc(C(=O)N(C)C[C@H]3CCCN(CCc4cc(F)c([C@H]5CCC(=O)NC5=O)c(F)c4)C3)cc21` [Example 276, (R,E)-N—(((S)-1-(4-((R)-2,6-dioxopiperidin-3-yl)-3,5-difluorophenethyl)piperidin-3-yl)methyl)-N,1^1, 2^6,7-tetramethyl-3-oxo-5^2,5^3-dihydro-1^1H,5^1H-11-oxa-4-aza-5(2,1)-benzo[d]imidazola-2(2,4)-pyridina-1(4,5)-pyrazolacycloundecaphane-5^6-carboxamide], for which, in the test on Del19/T790M/C797S EGFR, half-maximal degradation (DC50) was put at 1.74 nM and the “Dmax (%)” value is reported as 71.19%. Moreover, half-maximal degradation at L858R/T790M/C797S EGFR (setting [1]) (DC50) was put at 0.592 nM. This compound had a Dmax on L858R/T790M/C797S EGFR (setting [2]) of 88%.
Regarding “(R)-3-(2,6-difluoro-4-(3-(7-(((R,E)-1^1,2^6,7-trimethyl-3-oxo-5^2,5^3-dihydro-1^1H,5^1H-11-oxa-4-aza-5(2,1)-benzo[d]imidazola-2(2,4)-pyridina-1(4,5)-pyrazolacycloundecaphane-5^6-yl)methyl)-2,7-diazaspiro[3.5]nonane-2-carbonyl)azetidin-1-yl)phenyl)piperidine-2,6-dione [Example 25]”, the results for the 50% degradation concentration (DC50) with Del19/T790M/C797S EGFR and on L858R/T790M/C797S EGFR (setting [1]) were 0.6 nM and 0.4 nM, respectively. In addition, the “Dmax (%)” value in the test on Del19/T790M/C797S EGFR worked out at 86.3%; at L858R/T790M/C797S EGFR (H1975 # 25-LTC (L858R/T790M/C797S), maximum percentage of degradation), 93.6%.
As for `Cc1cc2cc(n1)-c1cnn(C)c1OCCC[C@@H](C)CN1/C(=N/C2=O)Nc2ccc(C(=O)N[C@@H]3C[C@H]4CC[C@@H](C3)N4CCc3cc(F)c([C@H]4CCC(=O)NC4=O)c(F)c3)cc21` [Example 264, (R,E)-N—((1R,3S,5S)-8-(4-((R)-2,6-dioxopiperidin-3-yl)-3,5-difluorophenethyl)-8-azabicyclo[3.2.1]octan-3-yl)-1^1,2^6,7-trimethyl-3-oxo-5^2,5^3-dihydro-1^1H,5^1H-11-oxa-4-aza-5(2,1)-benzo[d]imidazola-2(2,4)-pyridina-1(4,5)-pyrazolacycloundecaphane-5^6-carboxamide], in the test with Del19/T790M/C797S EGFR, it took 0.677 nM to reach half-maximal degradation (DC50) and the “Dmax (%)” value came to 68.8%. This compound showed a DC50 on L858R/T790M/C797S EGFR (setting [1]) of 0.546 nM. For the same compound, the maximal degradation (Dmax) at L858R/T790M/C797S EGFR (setting [2]) worked out at 89.8%.
Take `Cc1cc2cc(n1)-c1cnn(C)c1OCCC[C@@H](C)CN1/C(=N/C2=O)Nc2ccc(C(=O)N(C)[C@H]3CCN(CCc4cc(F)c([C@H]5CCC(=O)NC5=O)c(F)c4)[C@H](C)C3)cc21` [Example 259, (R,E)-N—((2R,4S)-1-(4-((R)-2,6-dioxopiperidin-3-yl)-3,5-difluorophenethyl)-2-methylpiperidin-4-yl)-N,1^1,2^6,7-tetramethyl-3-oxo-5^2,5^3-dihydro-1^1H,5^1H-11-oxa-4-aza-5(2,1)-benzo[d]imidazola-2(2,4)-pyridina-1(4,5)-pyrazolacycloundecaphane-5^6-carboxamide]: in the test on Del19/T790M/C797S EGFR, the DC50 was determined as 0.725 nM and the “Dmax (%)” value was found to be 83.21%. Also, at L858R/T790M/C797S EGFR (setting [1]), the DC50 was 0.841 nM. The Dmax on L858R/T790M/C797S EGFR (setting [2]) worked out at 89.2%.
On to `Cc1cc2cc(n1)-c1cnn(C)c1OCCC[C@@H](C)CN1/C(=N/C2=O)Nc2ccc(C3CCN(CC4CCN(c5cc(F)c([C@H]6CCC(=O)NC6=O)c(F)c5)CC4)CC3)cc21` [Example 323, (R)-3-(2,6-difluoro-4-(4-((4-((R,E)-1^1,2^6,7-trimethyl-3-oxo-5^2,5^3-dihydro-1^1H,5^1H-11-oxa-4-aza-5(2,1)-benzo[d]imidazola-2(2,4)-pyridina-1(4,5)-pyrazolacycloundecaphane-5^6-yl)piperidin-1-yl)methyl)piperidin-1-yl)phenyl)piperidine-2,6-dione], for which, in the test with Del19/T790M/C797S EGFR, the DC50 came out at 1.03 nM and the “Dmax (%)” value is 49.97%. Also, the DC50 at L858R/T790M/C797S EGFR (setting [1]) was determined as 1.03 nM. At L858R/T790M/C797S EGFR (setting [2]), this compound had a Dmax of 63.9%.
Take `Cc1cc2cc(n1)-c1cnn(C)c1OCCC[C@@H](C)CN1/C(=N/C2=O)Nc2ccc(C(=O)N(C)[C@H]3CCN(CCc4cc(F)c([C@H]5CCC(=O)NC5=O)c(F)c4)CC3(F)F)cc21` [Example 251, (R,E)-N—((S)-1-(4-((R)-2,6-dioxopiperidin-3-yl)-3,5-difluorophenethyl)-3,3-difluoropiperidin-4-yl)-N,1^1,2^6,7-tetramethyl-3-oxo-5^2,5^3-dihydro-1^1H,5^1H-11-oxa-4-aza-5(2,1)-benzo[d]imidazola-2(2,4)-pyridina-1(4,5)-pyrazolacycloundecaphane-5^6-carboxamide]: in the test on Del19/T790M/C797S EGFR, it took 0.611 nM to reach half-maximal degradation (DC50) and the “Dmax (%)” value is given as 80.86%. At L858R/T790M/C797S EGFR (setting [1]), the DC50 is 0.888 nM. At L858R/T790M/C797S EGFR (setting [2]), the Dmax is 85.5%.
`Cc1cc2cc(n1)-c1cnn(C)c1OCCC[C@@H](C)CN1/C(=N/C2=O)Nc2ccc(C(=O)N(C)CC(F)(F)C3CCN(CCc4cc(F)c([C@H]5CCC(=O)NC5=O)c(F)c4)CC3)cc21` [Example 275, (R,E)-N-(2-(1-(4-((R)-2,6-dioxopiperidin-3-yl)-3,5-difluorophenethyl)piperidin-4-yl)-2,2-difluoroethyl)-N,1^1,2^6,7-tetramethyl-3-oxo-5^2,5^3-dihydro-1^1H,5^1H-11-oxa-4-aza-5(2,1)-benzo[d]imidazola-2(2,4)-pyridina-1(4,5)-pyrazolacycloundecaphane-5^6-carboxamide]: in the test on Del19/T790M/C797S EGFR, the DC50 was 0.798 nM and the “Dmax (%)” value is given as 78.92%. On L858R/T790M/C797S EGFR (setting [1]), the DC50 was 1.01 nM. At L858R/T790M/C797S EGFR (setting [2]), the Dmax was determined as 88.9%.
Taken in the same sequence, the figures for `Cc1cc2cc(n1)-c1cnn(C)c1OCCC[C@@H](C)CN1/C(=N/C2=O)Nc2ccc(C(=O)N(C)[C@@H]3CCN(CCc4cc(F)c([C@H]5CCC(=O)NC5=O)c(F)c4)C[C@H]3O)cc21` [Example 243, (R,E)-N-((3R,4R)-1-(4-((R)-2,6-dioxopiperidin-3-yl)-3,5-difluorophenethyl)-3-hydroxypiperidin-4-yl)-N,1^1,2^6,7-tetramethyl-3-oxo-5^2,5^3-dihydro-1^1H,5^1H-11-oxa-4-aza-5(2,1)-benzo[d]imidazola-2(2,4) -pyridina-1(4,5)-pyrazolacycloundecaphane-5^6-carboxamide] were 2.9 nM, 86.39%, 0.677 nM and 92.1%.
Turning to `Cc1cc2cc(n1)-c1cnn(C)c1OCCC[C@@H](C)CN1/C(=N/C2=O)Nc2cc(F)c(C(=O)N(C)C3CCN(CCc4cc(F)c([C@H]5CCC(=O)NC5=O)c(F)c4)CC3)cc21` [Example 232, (R,E)-N-(1-(4-((R)-2,6-dioxopiperidin-3-yl)-3,5-difluorophenethyl)piperidin-4-yl)-5^5-fluoro-N,1^1,2^6,7-tetramethyl-3-oxo-5^2,5^3-dihydro-1^1H,5^1H-11-oxa-4-aza-5(2,1)-benzo[d]imidazola-2(2,4)-pyridina-1(4,5)-pyrazolacycloundecaphane-5^6-carboxamide], in the test with Del19/T790M/C797S EGFR, the DC50 was 0.292 nM and the “Dmax (%)” value is reported as 82.7%. This compound also registered a DC50 at L858R/T790M/C797S EGFR (setting [1]) of 0.318 nM. At L858R/T790M/C797S EGFR (setting [2]), this compound gave a Dmax of 92%.
Regarding `COC[C@@H]1CN(c2ccc3c(c2)N2C[C@H]4C[C@@H]4CCOc4c(cnn4C)-c4cc(cc(C)n4)C(=O)/N=C/2N3)CCN1C1CCN(c2cc(F)c([C@H]3CCC(=O)NC3=O)c(F)c2)CC1` [Example 468, (R)-3-(4-(4-((S)-4-((7'S,7^2R,E)-1^1,2^6-dimethyl-3-oxo-5^2,5^3-dihydro-1^1H,5^1H-10-oxa-4-aza-5(2,1)-benzo[d]imidazola-2(2,4)-pyridina-1(4,5)-pyrazola-7(1,2)-cyclopropanacyclodecaphane-5^6-yl)-2-(methoxymethyl)piperazin-1-yl)piperidin-1-yl)-2,6-difluorophenyl)piperidine-2,6-dione], in the test on Del19/T790M/C797S EGFR, it took 2.25 nM to reach half-maximal degradation (DC50) and the “Dmax (%)” value was 85.54%. Also, on L858R/T790M/C797S EGFR (setting [1]), the DC50 was found to be 2.12 nM. Also, at L858R/T790M/C797S EGFR (setting [2]), the Dmax amounted to 88.1%.
`Cc1cc2cc(n1)-c1cnn(C)c1OCCC[C@@H](C)CN1/C(=N/C2=O)Nc2ccc(C(=O)N(C)[C@@H]3CCN(CCc4cc(F)c([C@H]5CCC(=O)NC5=O)c(F)c4)CC3(C)C)cc21` [Example 262, (R,E)-N—((R)-1-(4-((R)-2,6-dioxopiperidin-3-yl)-3,5-difluorophenethyl)-3,3-dimethylpiperidin-4-yl)-N,1^1,2^6,7-tetramethyl-3-oxo-5^2,5^3-dihydro-1^1H,5^1H-11-oxa-4-aza-5(2,1)-benzo[d]imidazola-2(2,4)-pyridina-1(4,5)-pyrazolacycloundecaphane-5^6-carboxamide]: the DC50 in the test with Del19/T790M/C797S EGFR was determined as 0.474 nM; on L858R/T790M/C797S EGFR (setting [1]) it was 0.543 nM. In addition, the “Dmax (%)” value in the test on Del19/T790M/C797S EGFR was found to be 76.44%. This compound displayed a Dmax on L858R/T790M/C797S EGFR (setting [2]) of 84.2%.
Turning to `Cc1cc2cc(n1)-c1cnn(C)c1OCCC[C@@H](C)CN1/C(=N/C2=O)Nc2ccc(CN3CCC4(CC3)CCN(C(=O)C3CN(c5cc(F)c([C@H]6CCC(=O)NC6=O)c(F)c5)C3)CC4)cc21` [Example 12, (R)-3-(2,6-difluoro-4-(3-(9-(((R,E)-1^1,2^6,7-trimethyl-3-oxo-5^2,53-dihydro-1^1H,5^1H-11-oxa-4-aza-5(2,1)-benzo[d]imidazola-2(2,4)-pyridina-1(4,5)-pyrazolacycloundecaphane-5^6-yl)methyl)-3,9-diazaspiro[5.5]undecane-3-carbonyl)azetidin-1-yl)phenyl)piperidine-2,6-dione], the DC50 in the test on Del19/T790M/C797S EGFR is 0.5 nM; at L858R/T790M/C797S EGFR (setting [1]), 0.6 nM. The “Dmax (%)” value with Del19/T790M/C797S EGFR came to 86.7%. The same compound gave a Dmax on L858R/T790M/C797S EGFR (setting [2]) of 94.3%.

What is called DC50 is the concentration giving 50% degradation. Read a high DC50 as degradation only at high concentration. One may read the Dmax as the greatest extent of degradation seen. The low end stands for a partial loss of target, the high end for a fuller loss of target.
